Drawing on patent publication US20250368627A1, “PYRAZOLESULFONAMIDES AS ANTITUMOR AGENTS” (Peloton Therapeutics, Inc., a fully owned subsidiary of …, priority 2019, published 2025), this text covers EC50 and IC50 for 26 compounds.

Assay [1] relates to HCT116 human colorectal carcinoma cells. The assay is described as follows: CellTiter-Glo Luminescent Cell Viability Assay. Format: cell-based. The note with it: HCT-116, 72 h, 3 days. The protocol:
HCT116 human colorectal carcinoma cells were used in these experiments. HCT116 cells were obtained from ATCC. CellTiter-Glo® Luminescent Cell Viability Assay Reagent was obtained from Promega.
About 3,000 cells were seeded into 96-well plate with […] of media (DMEM supplemented with 10% FBS, 100 units penicillin, and […] streptomycin per mL) the day before the experiment. For compound treatment, the master plate was prepared as follows: 100× compound stocks were prepared in a 96-well plate by 1 to 3 serial dilutions of 0.5 mM DMSO stocks. Each master plate contained serial dilution of 8 compounds, including the control compound E7820. […] of 100× compound stock was added to each well of the assay plate to give final concentrations of […]. Each concentration was tested in triplicate. After 3 days, cell viability was determined using CellTiter-Glo Luminescent Cell Viability Assay Reagent following the manufacturer's recommended protocol. Briefly, […] of CellTiter-Glo reagent was added to each well of the assay plate and the contents were mixed for 3 minutes at 600 rpm on a shaker (Thermomixer R). The plate was immediately placed in a plate reader (Synergy 2) and the luminescence signal (0.5 second per well integration time) was determined. IC50 values were calculated using Dotmatics software.
In general terms: ATP-based viability assays read luminescence as a measure of living cells.

Assay [2] addresses T1, DDB1DB/DCAF15 and RBM39 R1R2 complex (Homo sapiens, UniProt Q14498+Q66K64).
T1 construct: Amino acids 150 to 331 of RBM39 were cloned into pGEX4T3; GST (from vector pGEX4T3); TEV cleavage site (N); made in house; host or cells: DDB1DB/His-DCAF15: baculovirus/Sf9 co-expression; RBM39 R1R2: E. coli (pGEX4T3)
The assay is described as follows: DCAF15 RBM39 Complex Formation Assay (FRET). The following applies: FRET ratio Em 665/Em 615, incubated overnight at 4° C. Format: binding. An excerpt: LANCE Eu-W1024 Anti-6×His and SureLight Allophycocyanin-anti-FLAG antibodies were purchased from Perkin Elmer. Human DDB1DB and His-tagged DCAF15 were co-expressed in baculovirus/sf9 system. While full length DDB1 contains three 7-bladed propellers termed A, B, and C, DDB1DB has only propeller A (amino acids 1 to 395) and C (amino acids 709-1140). The His-tagged DCAF15 contains six histidine residues directly preceding the DCAF15 sequence without any linker. An RBM39 fragment containing RRM1 and RRM2 was expressed in E. coli. Amino acids 150 to 331 of RBM39 were cloned into pGEX4T3 with an N-terminal TEV cleavage site and a C-terminal FLAG tag.
A compound of the present disclosure in DMSO (2 μL) was transferred to a 384-well assay plate. Compound was added in 14 points, 3-fold serial dilution (1 μM to 0.6 pico molar) in DMSO. […] FRET assay buffer (25 mM HEPES, pH 7.5, 100 mM NaCl, […], 0.5 mM TCEP, 0.005% Tween-20, 0.2 nM Eu—W1024 Anti-6×His, 50 nM SureLight Allophycocyanin-anti-FLAG, 20 nM DDB1DB/DCAF15, 50 nM RBM39 R1R2) was added and the resulting solution was incubated overnight at 4° C. The plate was placed in a plate reader (Spark 10) with excitation at 1=340 nm and emissions monitored at 1=665 nm and 1=615 nm, and the FRET ratio (Em 665/Em 615) was determined. Low signal controls containing no compound and high signal controls containing 10 mM indisulam were measured for each plate.
EC50 values were calculated using Dotmatics template equation for 4-parameter fit. Results are expressed as % formation using the following equation: […]

T1 sequence (Q66K64 whole entry, the tested form may be a part): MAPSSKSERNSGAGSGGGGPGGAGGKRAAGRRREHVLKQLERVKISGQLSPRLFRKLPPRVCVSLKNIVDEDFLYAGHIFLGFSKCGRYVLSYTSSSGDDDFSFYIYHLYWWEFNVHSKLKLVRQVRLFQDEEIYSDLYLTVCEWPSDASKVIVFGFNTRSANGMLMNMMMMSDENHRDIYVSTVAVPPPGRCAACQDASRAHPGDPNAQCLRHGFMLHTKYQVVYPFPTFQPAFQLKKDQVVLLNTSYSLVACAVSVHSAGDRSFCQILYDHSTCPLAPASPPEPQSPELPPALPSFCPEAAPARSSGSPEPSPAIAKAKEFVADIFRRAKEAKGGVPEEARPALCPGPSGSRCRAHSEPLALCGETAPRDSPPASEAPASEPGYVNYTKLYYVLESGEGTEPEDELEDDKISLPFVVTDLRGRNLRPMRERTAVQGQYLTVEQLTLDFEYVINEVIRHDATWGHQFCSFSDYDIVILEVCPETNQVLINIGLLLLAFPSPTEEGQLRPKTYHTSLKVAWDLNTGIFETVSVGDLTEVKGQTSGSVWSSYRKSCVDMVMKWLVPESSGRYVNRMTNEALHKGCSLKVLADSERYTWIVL
T1 sequence (Q14498 150-331): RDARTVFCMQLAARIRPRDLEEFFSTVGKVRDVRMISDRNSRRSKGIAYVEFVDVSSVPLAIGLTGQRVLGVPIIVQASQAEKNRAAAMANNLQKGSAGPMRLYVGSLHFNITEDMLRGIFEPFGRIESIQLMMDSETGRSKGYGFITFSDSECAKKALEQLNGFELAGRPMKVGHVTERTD
T1 sequence (Q16531 with tags, fused parts or gaps DEL396-708 partner): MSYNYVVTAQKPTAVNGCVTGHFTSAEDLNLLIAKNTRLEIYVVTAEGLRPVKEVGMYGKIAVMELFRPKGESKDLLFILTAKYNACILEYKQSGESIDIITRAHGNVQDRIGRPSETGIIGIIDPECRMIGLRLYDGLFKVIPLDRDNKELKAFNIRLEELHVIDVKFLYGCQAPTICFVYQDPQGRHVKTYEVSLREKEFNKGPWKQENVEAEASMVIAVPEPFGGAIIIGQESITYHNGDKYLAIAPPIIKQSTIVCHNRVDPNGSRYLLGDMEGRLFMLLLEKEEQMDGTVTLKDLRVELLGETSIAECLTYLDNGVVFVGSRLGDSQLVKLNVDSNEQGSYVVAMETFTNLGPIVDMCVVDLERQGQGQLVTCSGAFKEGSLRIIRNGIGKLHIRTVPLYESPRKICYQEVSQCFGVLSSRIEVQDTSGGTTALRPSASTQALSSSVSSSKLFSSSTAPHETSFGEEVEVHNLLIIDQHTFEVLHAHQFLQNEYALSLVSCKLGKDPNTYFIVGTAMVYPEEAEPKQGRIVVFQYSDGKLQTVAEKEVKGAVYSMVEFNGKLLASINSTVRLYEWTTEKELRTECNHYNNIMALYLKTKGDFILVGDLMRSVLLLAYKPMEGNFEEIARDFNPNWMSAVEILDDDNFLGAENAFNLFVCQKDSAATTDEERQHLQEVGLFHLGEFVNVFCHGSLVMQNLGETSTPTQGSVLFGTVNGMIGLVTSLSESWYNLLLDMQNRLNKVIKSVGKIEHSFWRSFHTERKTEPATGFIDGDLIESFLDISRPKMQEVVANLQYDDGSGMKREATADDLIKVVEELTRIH

`N#Cc1c[nH]c2c(NS(=O)(=O)c3cnn(CC(F)F)c3)ccc(Cl)c12` [Compound 91, N-(4-chloro-3-cyano-1H-indol-7-yl)-1-(2,2-difluoroethyl)pyrazole-4-sulfonamide]: in assay [1], the EC50 lay in the range of 250 to 1000 nM. Besides, in assay [2], the IC50 was less than 250 nM.
`N#Cc1c[nH]c2c(NS(=O)(=O)c3cnn(CF)c3N)cccc12` [Compound 312, 5-amino-N-(3-cyano-1H-indol-7-yl)-1-(fluoromethyl)pyrazole-4-sulfonamide]: the EC50 in assay [1] was more than 1000 nM. Further, the IC50 in assay [2] was less than 250 nM.
The like results for `Cc1ccc(NS(=O)(=O)c2cnn(S(=O)(=O)c3ccccc3)c2)c2[nH]cc(C#N)c12` [Compound 101, 1-(benzenesulfonyl)-N-(3-cyano-4-methyl-1H-indol-7-yl)pyrazole-4-sulfonamide] were, in that order, 250 to 1000 nM and less than 250 nM.
For `Cc1ccc(NS(=O)(=O)c2cnn(CC3CC3)c2)c2[nH]cc(C#N)c12` [Compound 69, N-(3-cyano-4-methyl-1H-indol-7-yl)-1-(cyclopropylmethyl)pyrazole-4-sulfonamide] the same measures were less than 250 nM and less than 250 nM.
For `CCn1cc(S(=O)(=O)Nc2ccc(F)c3c(C#N)c[nH]c23)cn1` [Compound 217, N-(3-cyano-4-fluoro-1H-indol-7-yl)-1-ethyl-pyrazole-4-sulfonamide] the same measures were 250 to 1000 nM and less than 250 nM.
With `N#Cc1c[nH]c2c(NS(=O)(=O)c3cnn(CCO)c3)ccc(Cl)c12` [Compound 162, N-(4-chloro-3-cyano-1H-indol-7-yl)-1-(2-hydroxyethyl)pyrazole-4-sulfonamide], the EC50 in assay [1] is 250 to 1000 nM. Also, the IC50 in assay [2] is less than 250 nM.
The like results for `N#Cc1c[nH]c2c(NS(=O)(=O)c3cnn(C45CC(C4)C5)c3)ccc(F)c12` [Compound 219, 1-(3-bicyclo[1.1.1]pentanyl)-N-(3-cyano-4-fluoro-1H-indol-7-yl)pyrazole-4-sulfonamide] were, in that order, 250 to 1000 nM and less than 250 nM.
Turning to `O=S(=O)(Nc1cccc2c(Cl)c[nH]c12)c1cnn(CCO)c1` [Compound 13, N-(3-chloro-1H-indol-7-yl)-1-(2-hydroxyethyl)pyrazole-4-sulfonamide], in assay [1], the EC50 was 250 to 1000 nM. In assay [2], the IC50 was less than 250 nM.
For `CS(=O)(=O)CCn1cc(S(=O)(=O)Nc2cccc3c(Cl)c[nH]c23)cn1` [Compound 9, N-(3-chloro-1H-indol-7-yl)-1-(2-methylsulfonylethyl)pyrazole-4-sulfonamide] the same measures were 250 to 1000 nM and less than 250 nM.
The like results for `Cn1ncc(S(=O)(=O)Nc2cccc3c(C#N)c[nH]c23)c1N` [Compound 299, 5-amino-N-(3-cyano-1H-indol-7-yl)-1-methyl-pyrazole-4-sulfonamide] were, in that order, 250 to 1000 nM and less than 250 nM.
For `Cc1ccc(NS(=O)(=O)c2cnn(C)c2)c2[nH]cc(Cl)c12` [Compound 75, N-(3-chloro-4-methyl-1H-indol-7-yl)-1-methyl-pyrazole-4-sulfonamide] the same measures were less than 250 nM and less than 250 nM.
As to `O=S(=O)(Nc1ccc(Cl)c2c(Cl)c[nH]c12)c1cnn(C(CO)(CO)CCl)c1` [Compound 166, 1-[1-(chloromethyl)-2-hydroxy-1-(hydroxymethyl)ethyl]-N-(3,4-dichloro-1H-indol-7-yl)pyrazole-4-sulfonamide], the EC50 in assay [1] is 250 to 1000 nM. In addition, the IC50 in assay [2] is less than 250 nM.
For the compound `Cc1ccc(NS(=O)(=O)c2cnn(CC(=O)N3C[C@@H](F)[C@@H](F)C3)c2)c2[nH]cc(C#N)c12` [Compound 138, N-(3-cyano-4-methyl-1H-indol-7-yl)-1-[2-[(3R,4S)-3,4-difluoropyrrolidin-1-yl]-2-oxo-ethyl]pyrazole-4-sulfonamide], the EC50 in assay [1] is more than 1000 nM. In assay [2], the IC50 is less than 250 nM.
For the compound `N#Cc1c[nH]c2c(NS(=O)(=O)c3cnn([C@@H](CO)CF)c3)ccc(F)c12` [Compound 247], in assay [1], the EC50 was more than 1000 nM. Besides, the IC50 in assay [2] is less than 250 nM.
On to `O=S(=O)(Nc1ccc(Cl)c2c(Cl)c[nH]c12)c1cnn(C(CO)CO)c1` [Compound 176, N-(3,4-dichloro-1H-indol-7-yl)-1-[2-hydroxy-1-(hydroxymethyl)ethyl]pyrazole-4-sulfonamide], for which, in assay [1], the EC50 lay in the range of 250 to 1000 nM. Also, the IC50 in assay [2] was less than 250 nM.
For `N#Cc1c[nH]c2c(NS(=O)(=O)c3cnn(CC4CC4)c3)ccc(Cl)c12` [Compound 123, N-(4-chloro-3-cyano-1H-indol-7-yl)-1-(cyclopropylmethyl)pyrazole-4-sulfonamide] the same measures were 250 to 1000 nM and less than 250 nM.
The like results for `Cc1ccc(NS(=O)(=O)c2c[nH]nc2N)c2[nH]cc(C#N)c12` [Compound 295, 3-amino-N-(3-cyano-4-methyl-1H-indol-7-yl)-1H-pyrazole-4-sulfonamide] were, in that order, 250 to 1000 nM and less than 250 nM.
The like results for `Cc1ccc(NS(=O)(=O)c2cnn([C@@H](CO)C(F)F)c2)c2[nH]cc(C#N)c12` [Compound 227, N-(3-cyano-4-methyl-1H-indol-7-yl)-1-[(1S)-2,2-difluoro-1-(hydroxymethyl)ethyl]pyrazole-4-sulfonamide] were, in that order, 250 to 1000 nM and less than 250 nM.
As to `Cc1ccc(NS(=O)(=O)c2cnn(C)c2F)c2[nH]cc(C#N)c12` [Compound 112, N-(3-cyano-4-methyl-1H-indol-7-yl)-5-fluoro-1-methyl-pyrazole-4-sulfonamide], the EC50 in assay [1] was in the range of 250 to 1000 nM. Moreover, the IC50 in assay [2] was less than 250 nM.
For the compound `Cc1ccc(NS(=O)(=O)c2cnn(C3(C)COC3)c2)c2[nH]cc(C#N)c12` [Compound 107, N-(3-cyano-4-methyl-1H-indol-7-yl)-1-(3-methyloxetan-3-yl)pyrazole-4-sulfonamide], in assay [1], the EC50 is less than 250 nM. Moreover, in assay [2], the IC50 is less than 250 nM.
On to `Cc1ccc(NS(=O)(=O)c2cnn(CC(C)(C)O)c2Cl)c2[nH]cc(C#N)c12` [Compound 276, 5-chloro-N-(3-cyano-4-methyl-1H-indol-7-yl)-1-(2-hydroxy-2-methyl-propyl)pyrazole-4-sulfonamide], for which the EC50 in assay [1] fell in the range of 250 to 1000 nM. Also, the IC50 in assay [2] was less than 250 nM.
For `C=C(CF)n1cc(S(=O)(=O)Nc2ccc(C)c3c(C#N)c[nH]c23)cn1` [Compound 80, N-(3-cyano-4-methyl-1H-indol-7-yl)-1-[1-(fluoromethyl)vinyl]pyrazole-4-sulfonamide] the same measures were less than 250 nM and less than 250 nM.
For the compound `COCCOCCOCCn1cc(S(=O)(=O)Nc2cccc3c(Cl)c[nH]c23)cn1` [Compound 24, N-(3-chloro-1H-indol-7-yl)-1-[2-[2-(2-methoxyethoxy)ethoxy)ethyl]pyrazole-4-sulfonamide], in assay [1], the EC50 was more than 1000 nM. Besides, the IC50 in assay [2] fell in the range of 250 to 1000 nM.
In the case of `Cc1ccc(NS(=O)(=O)c2cnn(C)c2Cl)c2[nH]cc(C#N)c12` [Compound 155, 5-chloro-N-(3-cyano-4-methyl-1H-indol-7-yl)-1-methyl-pyrazole-4-sulfonamide], the EC50 in assay [1] was less than 250 nM. For the same compound, the IC50 in assay [2] is less than 250 nM.
Turning to `Cc1ccc(NS(=O)(=O)c2cnn(C(F)(F)CO)c2)c2[nH]cc(C#N)c12` [Compound 301, N-(3-cyano-4-methyl-1H-indol-7-yl)-1-(1,1-difluoro-2-hydroxy-ethyl)pyrazole-4-sulfonamide], the EC50 in assay [1] is less than 250 nM. Further, in assay [2], the IC50 is less than 250 nM.
With `O=S(=O)(Nc1cccc2c(Cl)c[nH]c12)c1cnn(CC2CC2)c1` [Compound 51, N-(3-chloro-1H-indol-7-yl)-1-(cyclopropylmethyl)pyrazole-4-sulfonamide], the EC50 in assay [1] lay within 250 to 1000 nM. Besides, the IC50 in assay [2] was less than 250 nM.

For orientation: EC50 means the concentration giving half of the maximal effect. One may read the IC50 as the midpoint of a concentration-inhibition curve.
